Assay results: ChEMBL document CHEMBL1201862, “PubChem BioAssay data set” (2004)
Active and inactive are the calls of the source.

What was measured:
[1] = biological target: T1, DNA repair protein RAD52 homolog (Homo sapiens, UniProt P43351); assay type: functional, biochemical
T1 sequence (P43351 whole entry): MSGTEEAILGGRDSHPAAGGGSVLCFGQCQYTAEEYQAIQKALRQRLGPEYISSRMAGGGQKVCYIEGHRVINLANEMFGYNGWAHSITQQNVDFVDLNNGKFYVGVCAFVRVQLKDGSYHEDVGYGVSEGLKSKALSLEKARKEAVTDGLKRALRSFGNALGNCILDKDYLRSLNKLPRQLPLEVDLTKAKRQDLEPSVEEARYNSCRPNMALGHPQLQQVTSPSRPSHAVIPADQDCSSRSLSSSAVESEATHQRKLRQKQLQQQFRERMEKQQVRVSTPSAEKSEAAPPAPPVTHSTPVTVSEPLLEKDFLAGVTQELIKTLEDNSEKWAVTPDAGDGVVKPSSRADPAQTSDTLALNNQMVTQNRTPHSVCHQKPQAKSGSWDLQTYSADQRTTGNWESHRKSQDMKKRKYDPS

[2] = biological target: T2, Short transient receptor potential channel 4 (Mus musculus, UniProt Q9QUQ5); test: calcium entry via TRPC4 opening agents – cell-based, HEK293 TRPC4/mu-opioid, Fluo-4 calcium, dose response (AID 434937); assay type: functional
T2 sequence (Q9QUQ5 whole entry): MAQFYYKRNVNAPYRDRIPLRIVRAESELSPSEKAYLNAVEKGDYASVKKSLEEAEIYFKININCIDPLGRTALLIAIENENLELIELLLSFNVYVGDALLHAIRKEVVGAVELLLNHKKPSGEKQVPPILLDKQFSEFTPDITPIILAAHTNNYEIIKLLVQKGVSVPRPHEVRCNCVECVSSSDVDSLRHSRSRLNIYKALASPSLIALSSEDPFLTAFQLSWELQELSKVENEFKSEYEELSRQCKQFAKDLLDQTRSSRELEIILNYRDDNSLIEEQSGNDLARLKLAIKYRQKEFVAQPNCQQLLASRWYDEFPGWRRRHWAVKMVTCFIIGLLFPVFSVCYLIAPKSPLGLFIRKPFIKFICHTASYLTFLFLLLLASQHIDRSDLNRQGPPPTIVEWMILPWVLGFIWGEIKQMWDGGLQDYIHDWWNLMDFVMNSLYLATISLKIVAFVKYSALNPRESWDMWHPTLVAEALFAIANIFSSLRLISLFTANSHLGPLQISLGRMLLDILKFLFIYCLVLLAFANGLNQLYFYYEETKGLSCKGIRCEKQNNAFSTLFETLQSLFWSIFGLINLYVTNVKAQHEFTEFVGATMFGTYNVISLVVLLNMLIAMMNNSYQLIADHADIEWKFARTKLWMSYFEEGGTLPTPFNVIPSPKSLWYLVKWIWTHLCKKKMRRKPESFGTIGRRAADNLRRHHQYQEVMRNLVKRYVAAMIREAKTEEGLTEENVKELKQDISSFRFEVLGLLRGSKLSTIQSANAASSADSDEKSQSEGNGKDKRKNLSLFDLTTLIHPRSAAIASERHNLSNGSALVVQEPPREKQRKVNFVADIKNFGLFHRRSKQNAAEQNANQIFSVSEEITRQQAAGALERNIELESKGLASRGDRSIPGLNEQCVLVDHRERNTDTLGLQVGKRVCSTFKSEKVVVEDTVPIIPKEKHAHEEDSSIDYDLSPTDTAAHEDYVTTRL

[3] = luciferase reporter signal suppression in cells – H4 neuroglioma cells, luminescence, dose response (AID 1990); assay type: functional, cell-based
[4] = Luminescence Cell-Based Dose Response HTS to Identify Inhibitors of 5'UTR Stem-Loop Driven Prion Protein mRNA Translation in H4 Neuroglioblastoma Cells. [Related pubchem assays: 1827 (Project Summary), 1813 (Primary HTS)]; assay type: functional
[5] = alpha-synuclein stem-loop luciferase translation blockers – H4 neuroglioma cells, luminescence, confirmation (AID 1988); assay type: functional, cell-based
[6] = Luminescence Cell-Based Dose Retest to Confirm Inhibitors of Cancer Stem Cells. [Related pubchem assays (depositor defined):AID2717, AID2721]; assay type: functional; conditions: Homo sapiens
Genome polyprotein = Genome polyprotein (dengue virus type 2, UniProt P29990); test: flavivirus cap methylation enzyme inhibition – biochemical, confirmation dose response, primary screen (AID 588689); assay type: functional
Genome polyprotein, sequence (P29990 2492-3391 limits assumed): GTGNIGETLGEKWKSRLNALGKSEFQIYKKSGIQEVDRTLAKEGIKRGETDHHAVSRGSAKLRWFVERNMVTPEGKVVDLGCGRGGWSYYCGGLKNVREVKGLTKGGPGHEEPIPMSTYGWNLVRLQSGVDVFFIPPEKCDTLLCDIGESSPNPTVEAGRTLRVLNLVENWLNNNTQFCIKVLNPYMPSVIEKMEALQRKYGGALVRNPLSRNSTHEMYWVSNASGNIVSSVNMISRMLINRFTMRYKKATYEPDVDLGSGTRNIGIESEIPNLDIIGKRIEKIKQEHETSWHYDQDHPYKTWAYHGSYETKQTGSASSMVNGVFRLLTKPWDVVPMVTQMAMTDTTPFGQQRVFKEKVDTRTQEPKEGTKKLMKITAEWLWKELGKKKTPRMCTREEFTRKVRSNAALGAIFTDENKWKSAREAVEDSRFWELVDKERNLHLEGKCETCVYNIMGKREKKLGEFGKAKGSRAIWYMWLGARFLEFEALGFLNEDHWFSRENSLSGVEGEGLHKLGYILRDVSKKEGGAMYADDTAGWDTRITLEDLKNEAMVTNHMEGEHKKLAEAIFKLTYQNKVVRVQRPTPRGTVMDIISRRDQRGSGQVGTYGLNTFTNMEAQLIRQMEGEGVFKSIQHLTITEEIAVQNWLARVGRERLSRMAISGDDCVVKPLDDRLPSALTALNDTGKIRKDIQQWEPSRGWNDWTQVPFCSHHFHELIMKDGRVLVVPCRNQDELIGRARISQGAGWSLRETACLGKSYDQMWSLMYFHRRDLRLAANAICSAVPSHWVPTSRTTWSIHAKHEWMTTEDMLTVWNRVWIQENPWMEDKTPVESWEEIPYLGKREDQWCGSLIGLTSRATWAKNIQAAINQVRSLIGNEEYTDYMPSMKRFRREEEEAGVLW

Vero = test: viability of Vero cells under compound – cytotoxicity control for flavivirus capping enzyme inhibitors (AID 588742); assay type: functional; conditions: Chlorocebus sabaeus
[7] = Dd2 malaria parasite growth inhibition potency – SYBR Green, dry powder samples, dose response (AID 1159566); assay type: functional, cell-based;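 further: potency for growth inhibition with lower SYBR green DNA signal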
[8] = P. falciparum Dd2 growth inhibitors, dose response, SYBR Green, cherry-picked samples (AID 1159567); assay type: functional, cell-based
[9] = growth inhibition of PfATP4-mutant resistant parasites – NITD609-resistant line, SYBR Green, dry powder, dose response (AID 1159571); assay type: functional, cell-based;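 further: parasites synchronized at ring stage by sorbitol before testing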
[10] = growth inhibition of yeast DHODH-expressing 3D7 parasites – SYBR Green, dry powder samples, dose response (AID 1159570); assay type: functional, cell-based;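 further: parasite growth measured after 72 hours of compound exposure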
[11] = biological target: T3, Rac GTPase-activating protein 1 (Homo sapiens, UniProt Q9H0H5); test: blockers of MgcRacGAP-driven Rac1 GTP hydrolysis – biochemical, ADP Hunter fluorescence, primary and confirmatory, confirmation (AID 624330); assay type: functional
T3 sequence (Q9H0H5 whole entry): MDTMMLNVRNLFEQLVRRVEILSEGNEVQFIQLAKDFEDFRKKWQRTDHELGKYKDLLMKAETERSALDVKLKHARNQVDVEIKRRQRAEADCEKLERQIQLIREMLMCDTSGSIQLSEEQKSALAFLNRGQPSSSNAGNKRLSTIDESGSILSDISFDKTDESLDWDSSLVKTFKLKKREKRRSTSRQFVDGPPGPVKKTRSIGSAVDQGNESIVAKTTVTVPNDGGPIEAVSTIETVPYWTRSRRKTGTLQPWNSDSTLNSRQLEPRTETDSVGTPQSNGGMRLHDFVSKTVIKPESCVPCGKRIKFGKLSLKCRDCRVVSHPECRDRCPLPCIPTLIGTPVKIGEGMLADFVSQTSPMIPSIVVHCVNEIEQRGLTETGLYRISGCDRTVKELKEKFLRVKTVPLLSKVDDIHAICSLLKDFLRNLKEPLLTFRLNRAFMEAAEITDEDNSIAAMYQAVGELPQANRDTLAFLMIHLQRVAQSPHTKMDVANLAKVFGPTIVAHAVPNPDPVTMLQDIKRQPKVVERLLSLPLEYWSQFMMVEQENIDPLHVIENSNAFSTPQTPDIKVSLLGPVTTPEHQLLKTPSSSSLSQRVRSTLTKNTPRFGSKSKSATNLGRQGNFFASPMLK

[12] = viability loss in HeLa cells – cytotoxicity control for MgcRacGAP inhibitor project, dose response (AID 624300); assay type: functional

O=C(NCCCCCCCN1CCCCCCC1)C(C1CCCCC1)C1CCCCC1
AC50 [1]: 8.88 µM (active)

O=C(c1cccs1)N1CCN(c2ncc(Br)cn2)CC1
EC50 [2]: 0.668 µM (active)

CN(C)CCNC(=O)c1ccc(-c2cn3c(-c4ccc(Oc5ccccc5)cc4)cnc3cn2)cc1
AC50 [1]: 5.06 µM (active)

COc1ccc(/C=N/NC(=O)c2cccnc2)cc1COc1ccc([N+](=O)[O-])c(C)c1
EC50 [3]: > 120 µM (not active) | EC50 [4]: 28.9 µM (active) | EC50 [5]: 8.08 µM (active)

Cc1[nH]n(-c2ncc(-c3ccc(Cl)cc3)s2)c(=O)c1C(c1ccc(Cl)cc1)C(C#N)C#N (stereo not drawn)
AC50 [6]: 2.97 µM (active) | IC50 (Genome polyprotein): 23 µM (active) | CC50 (Vero): > 40 µM (active)

COc1ccc(/N=c2\oc3c(OC)cccc3cc2C(=O)NCc2ccco2)c(OC)c1
IC50 (Genome polyprotein): 40.8 µM (active) | CC50 (Vero): > 40 µM (active)

C[C@H]1CN([C@@H](C)CO)C(=O)c2cc(NC(=O)Nc3ccc(C(F)(F)F)cc3)ccc2O[C@@H]1CN(C)C(=O)Nc1cccc2ccccc12
AC50 [7]: 1.37 µM (active) | AC50 [8]: 2.41 µM (active) | AC50 [9]: 1.56 µM (active) | AC50 [10]: 1.42 µM (active)

Oc1ccc(-c2csc(Nc3ccccn3)n2)c(O)c1
AC50 [6]: 1.74 µM (active) | IC50 [11]: 59.5 µM (active) | CC50 [12]: 100 µM (active)
